{"source": "patent US20060229256A1", "about": "“Enternal administration of arginine and glutamine for abnormal vascular proliferation” (Bristol-Myers Squibb Company, priority 2003, published 2006)", "key": {"[1]": {"tested_on": "neonatal mouse model of oxygen-induced retinopathy", "test": "Neonatal mouse model of oxygen-induced retinopathy, intra-peritoneal injection, pre-retinal nuclei count and retinal flat mounts", "assay_type": "in vivo", "conditions": "for reduction in preretinal nuclei / preretinal vascularization: 5 g/kg/d intra-peritoneal, twice daily, P12-P17, versus vehicle", "protocol": "(§1) In the neonatal mouse model of oxygen-induced retinopathy, 7-day old mice were placed with their nursing dams in a 75% oxygen atmosphere for 5 days. (Smith et al., Invest Ophthalmol Vis Sci., 35(1):101-111 (1994). Mouse pups received twice daily intra-peritoneal injections (50 μl) starting on postnatal day 12 (P12) and continuing through postnatal day 17 (P17). In one experiment, injections included vehicle (0.9% sodium chloride) and the test compounds Ala-gly (5 g/kg/d), Arg-gln dipeptide (5 g/kg/d) and in a second experiment, different doses of Arg-gln (1.0, 2.5 and 5 g/kg/d) were tested.\n(§2) After the fifth day following return to normoxia (P17), the animals were euthanized by injection of a lethal dose of a combination of ketamine (70 mg/kg body weight) and xylazine (15 mg/kg body weight) followed by cervical dislocation. The eyes were removed and fixed in 4% paraformaldehyde, embedded in paraffin, and sectioned as previously described. (Smith et al., Id.) Pre-retinal nuclei were counted by masked observers. Efficacy of treatment was calculated as the percent average nuclei per section in the eyes of Arg-Gln treated animals versus control animals.\nAll data represent the mean±SEM. ANOVA was used to evaluate differences among groups, and individual contrasts were done using Student t-tests with Bonferroni correction was used to determine the significance between groups."}, "VEGF mRNA": {"tested_on": "VEGF mRNA", "test": "VEGF mRNA in retina of oxygen-induced retinopathy mice (real-time RT-PCR)", "assay_type": "in vivo, mouse", "conditions": "5 g/kg/d parenteral, day 5 after removal from high oxygen, P=0.007", "protocol": "as §1\nFor total RNA isolations from retina the animals were sacrificed and the eyes removed. The retina were then dissected away from the eye and stored in RNAlater® buffer (Ambion, Austin, Tex.) at 4° C. for subsequent isolation of protein or RNA.\nVEGF protein concentration was determined from isolated mouse retinas using the Quantikine® Human VEGF Immunoassay ELISA kit (R&D Systems, Minneapolis, Minn.). Pups were treated with the 5 g/kg/d dose of dipeptide and at varying time points after the pups were removed from oxygen on day 12. Eyes were enucleated at 0.5, 1 and 5 days post removal from high oxygen (n=14 eyes for each data point). Vehicle treated animals were compared to dipeptide-treated animals. […]"}, "[2]": {"tested_on": "neonatal mouse model of oxygen-induced retinopathy", "test": "Neonatal mouse model of oxygen-induced retinopathy, gavage (enteral) administration, pre-retinal nuclei count", "assay_type": "in vivo", "conditions": "gavage, 1, 2.5 and 5 gm/kg·day, P12-P17, versus vehicle; dose/response, highest effectiveness at 5 gm/kg·day", "text": "In the neonatal mouse model of oxygen-induced retinopathy, 7-day old mice were placed with their nursing dams in a 75% oxygen atmosphere for 5 days. Mouse pups received twice a day gavage feedings of dipeptide or control solution (50 microliter) starting on postnatal day 12 (P12) and continuing through postnatal day 17 (P17). Gavage feeds included vehicle (0.9% sodium chloride) and the test compounds and different doses of Arg-Gln (1.0, 2.5 and 5 gm/kg/d). The daily dosage of the dipeptide was divided evenly between the two daily gavage feedings.\nas §2, with “sectioned.” for “sectioned as previously described. (Smith et al., Id.)”"}, "[3]": {"tested_on": "vascular endothelial cell growth factor (VEGF) in human retinal pigment epithelial cells (hRPE)", "test": "VEGF secretion by human retinal pigment epithelial cells (VEGF ELISA of culture medium)", "assay_type": "cell-based", "protocol": "Human eyes were obtained from the National Disease Resource Interchange within 36 h of death. hRPE cells were prepared and maintained as described by Grant et al., in Curr. Eye Res., 9(4):323-335 (1990), and Enzmann et al., in Transpl Immunol, March 7(1): 9-14 (1999). For cell culture experiments, hRPE from passages 3-5 were used. All tissue culture media was purchased from Mediatech, Inc., Herndon, Fla. hRPE cultures were placed in glutamine-free medium for 24 hrs and then were exposed either to 0, 0.5, 1, 2.5 or 5 mg/ml of Arg-gln dipeptide for 48 hrs. At the end of 48 hrs, VEGF content of the culture medium containing the hRPE cells was measured using the Quantikine® Human VEGF Immunoassay ELISA kit (R&D Systems, Minneapolis, Minn.)."}}, "note": "Where “and” joins values, the source holds several entries; their conditions need not be identical. Equal values may be shown once."}
{"substance": "Ala-gly [reference compound]", "values": [{"measurement": "reduction in preretinal nuclei / preretinal vascularization", "setting": "[1]", "result": "2±5", "unit": "%"}]}
{"substance": "arginyl-glutamine dipeptide [Arg-gln]", "values": [{"measurement": "effect on preretinal nuclei, all doses", "setting": "[1]; 1.0, 2.5 and 5.0 g/kg/d intra-peritoneal, five days of treatment, P<0.00001", "result": "significant reduction"}, {"measurement": "effect on preretinal nuclei at the lowest dose tested (FIG. 2)", "setting": "[1]; 1 gm/kg·day intra-peritoneal, P12-P17", "result": "significant reduction"}, {"measurement": "reduction in preretinal nuclei / preretinal vascularization", "setting": "[1]", "result": "~80% and 82±7%"}, {"measurement": "reduction in preretinal nuclei / preretinal vascularization", "setting": "[1]; listed as Arg-gln dipeptide", "result": 80, "unit": "%"}, {"measurement": "retinal flat mounts (fluorescently labeled dextran): neovascular tufts and vascular leakage", "setting": "[1]; Arg-gln treated pups compared to control dipeptide Ala-gly treated pups", "result": "reduced neovascular tufts and vascular leakage"}, {"measurement": "VEGF mRNA in retina versus vehicle-treated pups", "setting": "VEGF mRNA", "result": "significant reduction"}, {"measurement": "VEGF mRNA in retina versus vehicle-treated pups", "setting": "VEGF mRNA; listed as Arg-gln dipeptide", "result": "much lower"}, {"measurement": "average nuclei per section in the eyes (FIG. 4)", "setting": "[2]", "result": "decreased at all levels of administration"}, {"measurement": "effect on VEGF secretion as a function of the level of Arg-gln (FIG. 1)", "setting": "[3]; 0-5 mg/ml, 48 hrs", "result": "statistically significant dose-dependent decrease"}, {"measurement": "decrease in soluble VEGF expression into the culture medium", "setting": "[3]; 1.5 mM Arg-gln, 48 hrs exposure after 24 hrs in glutamine-free medium, P=0.002", "result": "52.3±6.2", "unit": "%"}]}
